Experimental data reported in the supplement of paper PMC11061612.

Assays:
Assay in all cases: combination Emax (second highest fraction inhibited in the dose matrix, 72 h); higher = more inhibition; extreme values may be limits of the assay
[1] = test system: A549 (Lung Adenocarcinoma)
Method in brief: (§1)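 After 24 hours at 37°C and 5% CO2 in 1536-well plates, cells in DMEM/F12 or RPMI plus 10% FBS received two-drug dose matrices for 72 hours. Viability came from CellTiter-Glo 2.0 luminescence and was scaled as inhibition, anchored at 0 by vehicle wells and at 1 by blank wells. Combination Emax is taken as the second-highest inhibition in the matrix, and Bliss excess as the observed combination effect less EA + EB − EA·EB, with EA and EB the single-agent effects.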

[2] = test system: PANC-10-05 (Pancreatic Carcinoma)
Method in brief: as §1

[3] = test system: LN-405 (Glioblastoma)
Method in brief: as §1

[4] = test system: SK-MG-1 (Low Grade Glioma)
Method in brief: as §1

[5] = test system: ARH-77 (Non-Cancerous)
Method in brief: as §1

[6] = test system: NY (Osteosarcoma)
Method in brief: as §1

[7] = test system: ECC10 (Gastric Carcinoma)
Method in brief: as §1

[8] = test system: VCaP (Prostate Carcinoma)
Method in brief: as §1

[9] = test system: NCI-H2141 (Small Cell Lung Carcinoma)
Method in brief: as §1

[10] = test system: U-2-OS (Osteosarcoma)
Method in brief: as §1

[11] = test system: CAPAN-2 (Pancreatic Carcinoma)
Method in brief: as §1

[12] = test system: NCI-H1693 (Lung Adenocarcinoma)
Method in brief: as §1

[13] = test system: CCK-81 (Colorectal Carcinoma)
Method in brief: as §1

[14] = test system: NCI-H64 (Small Cell Lung Carcinoma)
Method in brief: as §1

[15] = test system: Hs-445 (Non-Cancerous)
Method in brief: as §1

[16] = test system: OS-RC-2 (Kidney Carcinoma)
Method in brief: as §1

[17] = test system: COLO-824 (Breast Carcinoma)
Method in brief: as §1

[18] = test system: GI-ME-N (Neuroblastoma)
Method in brief: as §1

[19] = test system: SK-MES-1 (Squamous Cell Lung Carcinoma)
Method in brief: as §1

[20] = test system: FU97 (Gastric Carcinoma)
Method in brief: as §1

SMILES | combination Emax [1] | combination Emax [2] | combination Emax [3] | combination Emax [4] | combination Emax [5] | combination Emax [6] | combination Emax [7] | combination Emax [8] | combination Emax [9] | combination Emax [10] | combination Emax [11] | combination Emax [12] | combination Emax [13] | combination Emax [14] | combination Emax [15] | combination Emax [16] | combination Emax [17] | combination Emax [18] | combination Emax [19] | combination Emax [20]
Cn1cnc2c(F)c(Nc3ccc(Br)cc3Cl)c(C(=O)NOCCO)cc21 [Selumetinib] + C[C@@H]1COCCN1C2=NC(=NC(=C2)C3(CC3)[S@](=N)(=O)C)C4=C5C=CNC5=NC=C4 [AZD6738] (first compound max 10 µM, 7x7, partner max 10 µM) | 0.875 | 0.613 | 0.405 | 0.387 | 0.946 | 0.617 | 0.443 | 0.303 | 0.409 | 0.624 | 0.428 | 0.364 | 0.923 | 0.808 | 0.755 | 0.304 | 0.718 | 0.312 | 0.687 | 0.333
CC1(C)CCC(CN2CCN(c3ccc(C(=O)NS(=O)(=O)c4ccc(NCC5CCOCC5)c([N+](=O)[O-])c4)c(Oc4cnc5[nH]ccc5c4)c3)CC2)=C(c2ccc(Cl)cc2)C1 [Venetoclax] + C1CN(CCC1(C(=O)N[C@@H](CCO)C2=CC=C(C=C2)Cl)N)C3=NC=NC4=C3C=CN4 [Capivasertib] (first compound max 1 µM, 7x7, partner max 3 µM) | 0.36 | 0.273 | 0.429 | 0.437 | 0.7 | 0.583 | 0.959 | 0.398 | 0.249 | 0.263 | 0.154 | 0.197 | 0.156 | 0.361 | 0.751 | 0.354 | 0.881 | 0.24 | 0.202 | 0.533
CC1(C)CCC(CN2CCN(c3ccc(C(=O)NS(=O)(=O)c4ccc(NCC5CCOCC5)c([N+](=O)[O-])c4)c(Oc4cnc5[nH]ccc5c4)c3)CC2)=C(c2ccc(Cl)cc2)C1 [Venetoclax] + C=CCn1c(=O)c2cnc(Nc3ccc(N4CCN(C)CC4)cc3)nc2n1-c1cccc(C(C)(C)O)n1 [AZD1775] (first compound max 1 µM, partner max 1 µM) | 0.406 | 0.486 | 0.326 | 0.625 | 0.997 | 0.741 | 0.989 | 0.668 | 0.792 | 0.679 | 0.453 | 0.308 | 0.784 | 0.942 | 0.99 | 0.326 | 0.967 | 0.272 | 0.565 | 0.626
CC1(C)CCC(CN2CCN(c3ccc(C(=O)NS(=O)(=O)c4ccc(NCC5CCOCC5)c([N+](=O)[O-])c4)c(Oc4cnc5[nH]ccc5c4)c3)CC2)=C(c2ccc(Cl)cc2)C1 [Venetoclax] + CCN(CCO)CCCOc1ccc2c(Nc3cc(CC(=O)Nc4cccc(F)c4)[nH]n3)ncnc2c1 [AZD2811] (first compound max 1 µM, 7x7, partner max 1 µM) | 0.461 | 0.288 | 0.276 | 0.464 | 0.703 | 0.616 | 1 | 0.226 | 0.482 | 0.257 | 0.204 | 0.182 | 0.199 | 0.792 | 0.68 | 0.232 | 1 | 0.186 | 0.223 | 0.413
CC1(C)CCC(CN2CCN(c3ccc(C(=O)NS(=O)(=O)c4ccc(NCC5CCOCC5)c([N+](=O)[O-])c4)c(Oc4cnc5[nH]ccc5c4)c3)CC2)=C(c2ccc(Cl)cc2)C1 [Venetoclax] + CN(C)CCCOc1ccc(-c2ccc3ncc4c(c3c2)n(C2CCOCC2)c(=O)n4C)cn1 [AZD0156] (first compound max 1 µM, 7x7, partner max 1 µM) | 0.28 | 0.229 | 0.306 | 0.275 | 0.297 | 0.551 | 0.963 | 0.196 | 0.148 | 0.188 | 0.199 | 0.221 | 0.244 | 0.25 | 0.221 | 0.249 | 0.783 | 0.226 | 0.216 | 0.462
CC1(C)CCC(CN2CCN(c3ccc(C(=O)NS(=O)(=O)c4ccc(NCC5CCOCC5)c([N+](=O)[O-])c4)c(Oc4cnc5[nH]ccc5c4)c3)CC2)=C(c2ccc(Cl)cc2)C1 [Venetoclax] + COc1cc(Nc2ncc3c(n2)-c2ccc(Cl)cc2C(c2c(F)cccc2OC)=NC3)ccc1C(=O)O [Alisertib] (first compound max 1 µM, 7x7, partner max 10 µM) | 0.721 | 0.302 | 0.513 | 0.365 | 0.932 | 0.654 | 0.963 | 0.305 | 0.518 | 0.4 | 0.244 | 0.344 | 0.318 | 0.692 | 0.857 | 0.319 | 1 | 0.327 | 0.4 | 0.484
CC1(C)CCC(CN2CCN(c3ccc(C(=O)NS(=O)(=O)c4ccc(NCC5CCOCC5)c([N+](=O)[O-])c4)c(Oc4cnc5[nH]ccc5c4)c3)CC2)=C(c2ccc(Cl)cc2)C1 [Venetoclax] + C[C@@H]1COCCN1C2=NC(=NC(=C2)C3(CC3)[S@](=N)(=O)C)C4=C5C=CNC5=NC=C4 [AZD6738] (first compound max 1 µM, 7x7, partner max 10 µM) | 0.716 | 0.53 | 0.483 | 0.535 | 0.961 | 0.708 | 0.98 | 0.428 | 0.637 | 0.586 | 0.319 | 0.372 | 0.846 | 0.882 | 0.99 | 0.399 | 0.944 | 0.459 | 0.75 | 0.339
CC1(C)CCC(CN2CCN(c3ccc(C(=O)NS(=O)(=O)c4ccc(NCC5CCOCC5)c([N+](=O)[O-])c4)c(Oc4cnc5[nH]ccc5c4)c3)CC2)=C(c2ccc(Cl)cc2)C1 [Venetoclax] + C[C@@H](Nc1cc(F)cc(F)c1)c1cc(C(=O)N(C)C)cc2c(=O)cc(N3CCOCC3)oc12 [AZD8186] (first compound max 1 µM, 7x7, partner max 3 µM) | 0.471 | 0.244 | 0.335 | 0.387 | 0.724 | 0.616 | 0.969 | 0.188 | 0.361 | 0.139 | 0.194 | 0.129 | 0.0792 | 0.335 | 0.612 | 0.375 | 0.921 | 0.165 | 0.257 | 0.329
CC1(C)CCC(CN2CCN(c3ccc(C(=O)NS(=O)(=O)c4ccc(NCC5CCOCC5)c([N+](=O)[O-])c4)c(Oc4cnc5[nH]ccc5c4)c3)CC2)=C(c2ccc(Cl)cc2)C1 [Venetoclax] + Cc1cc2ncnn2cc1Nc1ncc2c(n1)n(C1CCOCC1)c(=O)n2C [AZD7648] (first compound max 1 µM, 7x7, partner max 10 µM) | 0.436 | 0.332 | 0.373 | 0.28 | 0.559 | 0.578 | 0.955 | 0.293 | 0.178 | 0.206 | 0.219 | 0.26 | 0.173 | 0.255 | 0.405 | 0.274 | 0.766 | 0.186 | 0.155 | 0.494
CC1(C)CCC(CN2CCN(c3ccc(C(=O)NS(=O)(=O)c4ccc(NCC5CCOCC5)c([N+](=O)[O-])c4)c(Oc4cnc5[nH]ccc5c4)c3)CC2)=C(c2ccc(Cl)cc2)C1 [Venetoclax] + Cn1cnc2c(F)c(Nc3ccc(Br)cc3Cl)c(C(=O)NOCCO)cc21 [Selumetinib] (first compound max 1 µM, 7x7, partner max 3 µM) | 0.611 | 0.398 | 0.182 | 0.185 | 0.369 | 0.485 | 0.937 | 0.143 | 0.159 | 0.169 | 0.364 | 0.26 | 0.369 | 0.239 | 0.395 | 0.169 | 0.829 | 0.24 | 0.345 | 0.314
